Experimental data reported in paper PMC8151276, “An Integrated Approach toward NanoBRET Tracers for Analysis of GPCR Ligand Engagement” (Molecules, 2021).

Target: T1, F2RL1 (Homo sapiens, UniProt P55085)
T1 construct: purchased Promega (in-house HiBiT-GPCR construct library, NanoBRET)
T1 sequence (P55085 26-397): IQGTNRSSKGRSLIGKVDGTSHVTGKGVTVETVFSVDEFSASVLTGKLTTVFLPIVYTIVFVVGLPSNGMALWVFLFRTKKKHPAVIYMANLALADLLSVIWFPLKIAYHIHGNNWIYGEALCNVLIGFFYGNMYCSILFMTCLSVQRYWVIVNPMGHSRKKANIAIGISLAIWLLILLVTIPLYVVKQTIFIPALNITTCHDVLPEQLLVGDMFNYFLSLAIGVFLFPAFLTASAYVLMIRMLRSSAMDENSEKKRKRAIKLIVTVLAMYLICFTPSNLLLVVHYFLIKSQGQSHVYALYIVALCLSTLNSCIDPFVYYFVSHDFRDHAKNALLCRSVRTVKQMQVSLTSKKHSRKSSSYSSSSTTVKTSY
Test: NanoBRET screen HiBiT-F2RL1 in HEK293
Type: binding
Method: Each tracer candidate was screened across the entire library of HiBiT-GPCR constructs using NanoBRET as the detection modality. As depicted in Figure 4A, the specificity of interactions was evaluated through decrease in BRET due to competitive displacement of a bound tracer by excess parental compound. Each tracer was analyzed for binding to each HiBiT-GPCR fusion in the absence and in the presence of competing parental compound. Briefly, HEK293 cells were transfected with HiBiT-GPCR constructs diluted into promoterless DNA to reduce expression and maximize translocation to the cell surface. Each tracer candidate was then screened at concentrations of 1 μM and 0.1 μM across cells expressing these fusions. Cells were treated for 1.5 h with tracer either alone or in the presence of 20 μM competing parental compound (i.e., control). BRET was measured upon addition of purified LgBiT and subsequent complementation with HiBiT genetically fused to a GPCR. The specificity of interactions was assessed through a decrease in BRET signal due to competitive displacement of the bound tracer. To further gauge the robustness of these interactions, the fold response over the control (i.e., BRETtracer/BRETcontrol) was calculated. We chose a 1.5-fold response, which translates to ≥7-fold signal over noise as the minimal threshold required to score an interaction as positive. […]. Below we highlight the screening results obtained for our exemplary fluorescent tracers based on Clozapine, Amitriptyline and AZD1283.
HiBiT-GPCR DNA constructs were diluted in 10 mM Tris pH 8 to a final concentration of 0.01 μg/μL, arrayed in 96-well plates and stored at −20 °C. For transfection, HEK293 cells were suspended in Opti-MEM (without phenol red) supplemented with 2% fetal bovine serum (Seradigm) and 100 units/mL penicillin–streptomycin (Gibco) at a final concentration of 220,000 cells/mL and dispensed into white 96-well plates at 90 μL/well. Subsequent transfections and screens were carried using an Agilent Bravo Automated Liquid Handling Platform. First, the 96-well HiBiT DNA arrays were diluted 25-fold in Opti-MEM (without serum or phenol red) to a final concentration of 0.0004 μg/μL and 20 μL of the diluted DNAs were transferred into new 96-well plates. Next, promoterless carrier DNA (1 μg/μL) was diluted 25-fold (0.04 μg/μL) and then dispensed into the diluted arrays at 20 μL/well. Following brief mixing, Viafect transfection reagent (Promega) diluted 16-fold into Opti-MEM was dispensed into the plates at 40 μL/well. After mixing by pipetting, plates were incubated for 10 min on the pipetting station deck. The DNA-transfection reagent complexes were then added to plates containing cells. To facilitate the screen, 10 μL of DNA-transfection reagent complexes were added in duplicates to the top 4 and bottom 4 rows, resulting in two identical 48-well arrays per plate. Plates with transfected cells were incubated for 18–20 h at 37 °C/5% CO2. A screen of each tracer across the entire library using two different concentrations requires duplicate plates of transfected cells. Depending on the number of tracers being screened, transfections can be scaled up using the same ratios. The next day, for each tracer, four 20× screening solutions in tracer dilution buffer (Promega) were prepared: two duplicates at final concentration of 20 μM and two duplicates at a final concentration of 2 μM. A competing unmodified compound was added to one of each duplicate at a final concentration of 400 μM. The four resulting solutions were diluted 4-fold in Opti-MEM without serum or phenol red to generate 5× solutions (5 µM and 0.5 µM tracer +/− 100 μM competing compound). To screen the library, a BioTek MultiFlo FX liquid dispenser was used to dispense 22.5 µL of tracer solution to the top 4 rows and 22.5 µL tracer + competing compound solution to the 4 bottom rows. Plates were briefly mixed on an orbital shaker and incubated for 1.5 h at room temperature. […]

| SMILES | NanoBRET Fold Response (F2RL1, tracer 0.1μM) | NanoBRET Fold Response (F2RL1, tracer 1μM) | further results |
| --- | --- | --- | --- |
| O=C(CCc1ccc2n1[B-](F)(F)[N+]1=C(c3ccc[nH]3)C=CC1=C2)NCc1ccc(C(=O)NCCOCCC(=O)N[C@@H]2CC[C@@]3(O)[C@H]4Cc5ccc(O)c6c5[C@@]3(CCN4CC3CC3)[C@H]2O6)cc1 [Naltrexone-3-NB590] | 0.79 | 0.91 | – |
| CCCn1c(=O)c2[nH]c(-c3ccc(OCC(=O)NCCNC(=O)CCOCCNC(=O)c4ccc(CNC(=O)CCc5ccc6n5[B-](F)(F)[N+]5=C(c7ccc[nH]7)C=CC5=C6)cc4)cc3)nc2n(CCC)c1=O [XAC-3-NB590] | 1.04 | 0.97 | – |
| CC(C)N(CC[C@H](c1ccccc1)c1cc(CCNC(=O)c2ccc(CNC(=O)CCc3ccc4n3[B-](F)(F)[N+]3=C(c5ccc[nH]5)C=CC3=C4)cc2)ccc1O)C(C)C [Tolterodine-BZ-NB590] | 0.97 | 0.98 | – |
| COc1ccc2[nH]c(-c3ccc(CNC(=O)CCOCCOCCOCCOCCNC(=O)CCc4ccc5n4[B-](F)(F)[N+]4=C(c6ccc[nH]6)C=CC4=C5)cc3)c(CCNC(C)=O)c2n1 [AzomelatoninICO9-2-NB590] | – | – | NanoBRET Fold Response (0.1μM tracer): 0.95; NanoBRET Fold Response (1μM tracer): 0.83 |
| CN1CCN(C2=Nc3cc(Cl)ccc3N(CC(=O)NCCOCCOCCOCCOCCNC(=O)CCc3ccc4n3[B-](F)(F)[N+]3=C(c5ccc[nH]5)C=CC3=C4)c3ccccc32)CC1 [Clozapine-c-2-NB590] | – | – | NanoBRET Fold Response (F2RL1, 0.1μM tracer): 0.97; NanoBRET Fold Response (F2RL1, 1μM tracer): 1.00 |
| COc1ccccc1N1CCN(CCCCN2C(=O)c3ccc(CNC(=O)CCOCCNC(=O)c4ccc(CNC(=O)CCc5ccc6n5[B-](F)(F)[N+]5=C(c7ccc[nH]7)C=CC5=C6)cc4)cc3C2=O)CC1 [NAN-190-3-NB590] | 0.96 | 1.08 | – |
| Cc1nc2n(c(=O)c1CCN1CCC(c3noc4cc(F)ccc34)CC1)CCCC2OC(=O)NCCOCCOCCOCCOCCNC(=O)CCc1ccc2n1[B-](F)(F)[N+]1=C(c3ccc[nH]3)C=CC1=C2 (stereo not shown) [Risperidone-2-NB590] | 1.00 | 0.94 | – |
| O=C(CCOCCOCCOCCOCCNC(=O)CCc1ccc2n1[B-](F)(F)[N+]1=C(c3ccc[nH]3)C=CC1=C2)NCCCN1CCN(C2=Nc3ccccc3Oc3ccc(Cl)cc32)CC1 [Loxapine-a-2-NB590] | 1.12 | 1.14 | – |
| COc1ccccc1N1CCN(CCCCN2C(=O)c3ccc(CNC(=O)CCOCCOCCOCCOCCNC(=O)CCc4ccc5n4[B-](F)(F)[N+]4=C(c6ccc[nH]6)C=CC4=C5)cc3C2=O)CC1 [NAN-190-2-NB590] | 0.96 | 0.98 | – |
| CC(C)N(CC[C@H](c1ccccc1)c1cc(CCNC(=O)CCOCCOCCOCCOCCNC(=O)CCc2ccc3n2[B-](F)(F)[N+]2=C(c4ccc[nH]4)C=CC2=C3)ccc1O)C(C)C [Tolterodine-2-NB590] | 1.07 | 1.03 | – |
| N#CN=C(NCCCOc1cccc(CN2CCCCC2)c1)NCCNC(=O)CCOCCOCCOCCOCCNC(=O)CCc1ccc2n1[B-](F)(F)[N+]1=C(c3ccc[nH]3)C=CC1=C2 [Aminopotentidine-2-NB590] | 1.03 | 0.99 | – |
| CCOC(=O)c1cc(C#N)c(N2CCC(C(=O)NS(=O)(=O)Cc3ccccc3/C=C/C(=O)NCCNC(=O)CCc3ccc4n3[B-](F)(F)[N+]3=C(c5ccc[nH]5)C=CC3=C4)CC2)nc1C [AZD1283-1-NB590] | – | – | NanoBRET Fold Response (F2RL1, 0.1μM): 1.06; NanoBRET Fold Response (F2RL1, 1μM): 1.06 |
| CN(C)CCC=C1c2ccccc2CCc2ccc(C(=O)NCCNC(=O)CCOCCOCCOCCOCCNC(=O)CCc3ccc4n3[B-](F)(F)[N+]3=C(c5ccc[nH]5)C=CC3=C4)cc21 [Amitriptyline-b-2-NB590] | – | – | NanoBRET Fold Response (tracer at 0.1μM, listed as amitriptyline-b-2-NB590): 1.10; NanoBRET Fold Response (tracer at 1μM, listed as amitriptyline-b-2-NB590): 1.00 |
| CN(C)CCC=C1c2ccccc2CCc2ccc(C(=O)NCCNC(=O)CCOCCOCCOCCOCCNC(=O)CCc3ccc4n3[B-](F)(F)[N+]3=C(c5ccc[nH]5)C=CC3=C4)cc21 [Amitriptyline-a-2-NB590] | – | – | NanoBRET Fold Response (tracer at 0.1μM): 1.01; NanoBRET Fold Response (tracer at 1μM): 1.07 |
| O=C(CCc1ccc2n1[B-](F)(F)[N+]1=C(c3ccc[nH]3)C=CC1=C2)NCCOCCOCCNC(=O)OCCOCCN1CCN(C2=Nc3ccccc3Sc3ccccc32)CC1 [Quetiapine-a-2-NB590] | 0.88 | 0.71 | – |
| Cc1cc2c(s1)Nc1ccccc1N=C2N1CCN(CCCNC(=O)CCOCCOCCOCCOCCNC(=O)CCc2ccc3n2[B-](F)(F)[N+]2=C(c4ccc[nH]4)C=CC2=C3)CC1 [Olanzapine-a-2-NB590] | 1.04 | 0.96 | – |
| CN1CCN(C2=Nc3cc(Cl)ccc3Nc3ccc(CNC(=O)CCOCCOCCOCCOCCNC(=O)CCc4ccc5n4[B-](F)(F)[N+]4=C(c6ccc[nH]6)C=CC4=C5)cc32)CC1 [Clozapine-b-2-NB590] | – | – | NanoBRET Fold Response (F2RL1, 0.1μM tracer): 1.00; NanoBRET Fold Response (F2RL1, 1μM tracer): 1.06 |
| COc1ccc2c(n1)c(CCNC(C)=O)cn2CCNC(=O)CCc1ccc2n1[B-](F)(F)[N+]1=C(c3ccc[nH]3)C=CC1=C2 [Azamelatonin-1-NB590] | – | – | NanoBRET Fold Response (0.1μM tracer): 1.21; NanoBRET Fold Response (1μM tracer): 0.93 |
| O=C(CCc1ccc2n1[B-](F)(F)[N+]1=C(c3ccc[nH]3)C=CC1=C2)NCc1ccc(C(=O)NCCOCCOCCNCC(O)COc2cccc3ccccc23)cc1 (stereo not shown) [Propranolol-3-NB590] | – | – | NanoBRET Fold Response (F2RL1, 0.1μM): 1.05; NanoBRET Fold Response (F2RL1, 1μM): 1.07 |
| O=C(CCOCCOCCOCCOCCNC(=O)CCc1ccc2n1[B-](F)(F)[N+]1=C(c3ccc[nH]3)C=CC1=C2)NCCCN1CCN(C2=Nc3cc(Cl)ccc3Nc3ccccc32)CC1 [Clozapine-a-2-NB590] | – | – | NanoBRET Fold Response (F2RL1, 0.1μM tracer): 0.89; NanoBRET Fold Response (F2RL1, 1μM tracer): 1.16 |
